Experimental data from patent publication US10537558B2 (Bantam Pharmaceutical, LLC, priority 2015, dated 2020).

Test system: BJAB cells
Assay: BJAB cell proliferation (Cell Titer Glo)
Type: cell-based
Details: Homo sapiens, read-out: EC50
Procedure, shortened: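 BJAB cells exposed to serially diluted compounds (0.1% DMSO final) for about 72 h at 37 °C. Proliferation read by Cell Titer Glo luminescence as percent of untreated controls; EC50 from non-linear regression of dose-response data.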

COc1cc(C)cc(-c2c(C)nn(-c3nc(-c4ccc(Cl)c(Cl)c4)c(SC(C)C)s3)c2C(=O)O)c1 [Compound 165, 1-(4-(3,4-dichlorophenyl)-5-(isopropylthio)thiazol-2-yl)-4-(3-methoxy-5-methylphenyl)-3-methyl-1H-pyrazole-5-carboxylic Acid]
EC50: 1 to 5 µM

COc1cc(-c2c(C)nn(-c3nc(-c4ccc(Cl)c(Cl)c4)c(SC(C)C)s3)c2C(=O)O)ccn1 [Compound 166, 1-(4-(3,4-dichlorophenyl)-5-(isopropylthio)thiazol-2-yl)-4-(2-methoxypyridin-4-yl)-3-methyl-1H-pyrazole-5-carboxylic acid]
EC50: 5 to 10 µM

Cc1cc(-c2c(C)nn(-c3nc(-c4ccc(Cl)c(Cl)c4)c(SC(C)C)s3)c2C(=O)O)ccn1 [Compound 167, 1-(4-(3,4-dichlorophenyl)-5-(isopropylthio)thiazol-2-yl)-3-methyl-4-(2-methylpyridin-4-yl)-1H-pyrazole-5-carboxylic Acid]
EC50: 1 to 5 µM

Cc1nn(-c2nc(-c3cccc4[nH]ccc34)c(SC(C)C)s2)c(C(=O)O)c1-c1cccc(F)c1 [Compound 168, 1-(4-(1H-indol-4-yl)-5-(isopropylthio)thiazol-2-yl)-4-(3-fluorophenyl)-3-methyl-1H-pyrazole-5-carboxylic acid]
EC50: > 25 µM

Cc1nn(-c2nc(-c3cccc(F)c3)c(SC(C)C)s2)c(C(=O)O)c1-c1cccc2[nH]ccc12 [Compound 169, 1-(4-(3-fluorophenyl)-5-(isopropylthio)thiazol-2-yl)-4-(1H-indol-4-yl)-3-methyl-1H-pyrazole-5-carboxylic acid]
EC50: > 25 µM

Cc1nn(-c2nc(-c3ccc4[nH]ccc4c3)c(SC(C)C)s2)c(C(=O)O)c1-c1cccc(F)c1 [Compound 170, 1-(4-(1H-indol-5-yl)-5-(isopropylthio)thiazol-2-yl)-4-(3-fluorophenyl)-3-methyl-1H-pyrazole-5-carboxylic acid]
EC50: > 25 µM

Cc1nn(-c2nc(C#CC3CC3)c(SC(C)C)s2)c(C(=O)O)c1-c1cccc(F)c1 [Compound 171, 1-(4-(cyclopropylethynyl)-5-(isopropylthio)thiazol-2-yl)-4-(3-fluorophenyl)-3-methyl-1H-pyrazole-5-carboxylic acid]
EC50: > 25 µM

Cc1nn(-c2nc(C3CC3)c(SC(C)C)s2)c(C(=O)O)c1C1CC1 [Compound 172, 4-cyclopropyl-1-(4-cyclopropyl-5-(isopropylthio)thiazol-2-yl)-3-methyl-1H-pyrazole-5-carboxylic Acid]
EC50: > 25 µM

Cc1nn(-c2nc(-c3ccc(Cl)c(Cl)c3)c(SC(C)C)s2)c(C(=O)O)c1C1CC1 [Compound 173, 4-cyclopropyl-1-(4-(3,4-dichlorophenyl)-5-(isopropylthio)thiazol-2-yl)-3-methyl-1H-pyrazole-5-carboxylic Acid]
EC50: 10 to 25 µM

Cc1nn(-c2nc(-c3ccc(Cl)c(Cl)c3)c(SC(C)C)s2)c(C(=O)O)c1-c1cc(Cl)cc(OC(C)C)c1 [Compound 174, 4-(3-chloro-5-isopropoxyphenyl)-1-(4-(3,4-dichlorophenyl)-5-(isopropylthio)thiazol-2-yl)-3-methyl-1H-pyrazole-5-carboxylic Acid]
EC50: 1 to 5 µM

Cc1nn(-c2nc(-c3cccc(Cl)c3)c(SC(C)C)s2)c(C(=O)O)c1-c1cccc(F)c1 [Compound 176, 1-(4-(3-chlorophenyl)-5-(isopropylthio)thiazol-2-yl)-4-(3-fluorophenyl)-3-methyl-1H-pyrazole-5-carboxylic Acid]
EC50: 5 to 10 µM

Cc1nn(-c2nc(-c3ccc(Cl)cc3)c(SC(C)C)s2)c(C(=O)O)c1-c1cccc(F)c1 [Compound 177, 1-(4-(4-chlorophenyl)-5-(isopropylthio)thiazol-2-yl)-4-(3-fluorophenyl)-3-methyl-1H-pyrazole-5-carboxylic Acid]
EC50: < 1 µM

Cc1nn(-c2nc(-c3ccc(Cl)cc3Cl)c(SC(C)C)s2)c(C(=O)O)c1-c1cccc(F)c1 [Compound 178, 1-(4-(2,4-dichlorophenyl)-5-(isopropylthio)thiazol-2-yl)-4-(3-fluorophenyl)-3-methyl-1H-pyrazole-5-carboxylic Acid]
EC50: 1 to 5 µM
